Reference: patent US12318365B2, “Inhibition of dipeptide repeat proteins” (ALS Therapy Development Institute, priority 2019, dated 2025)
No end group written: not given here.

Tests used:
[1] = test system: NSC-34 motor-neuron-like cells; experiment: WST-1 assay (dysmetabolism) in NSC-34 cells; assay type: cell-based, Mouse; settings: for dose dependence of abrogation of GR15-induced dysmetabolism / dose dependence of abrogation of PR15-induced dysmetabolism: dose range of the example
Description: WST-1 Assay: The WST-1 assay is a colorimetric assay that measures cell metabolism. Cells with a healthy metabolism contain mitochondrial dehydrogenase enzymes that remove hydrogen atoms from certain molecules, resulting in a release of energy that the cell can use to perform critical reactions. In the WST-1 assay, a water soluble tetrazolium salt substrate (known as WST-1) is applied, which readily enters cells and their mitochondria upon application. If cells are viable, their mitochondrial dehydrogenase enzymes will catalyze the reaction to convert this WST-1 substrate to a colored product called Formazan. The production of this colored Formazan product by viable cells can be quantified using a spectrophotometer (plate reader). Higher absorbance readings correspond to greater metabolic activity/cell viability.
NSC-34 Cell Culture: NSC-34 cells (Cedarlane Laboratories, Burlington, ON, CA) were cultured in a complete medium consisting of High Glucose Dulbecco's Modified Eagle Medium (Millipore-Sigma, Burlington, MA, USA) supplemented with 10% US-origin fetal bovine serum (Thermo-Fisher Scientific, Cambridge, MA, USA), 1% 200 mM L-Glutamine solution (Thermo-Fisher Scientific, Cambridge, MA, USA), and 1% 10,000 U/mL Penicillin-Streptomycin solution (Thermo-Fisher Scientific, Cambridge, MA, USA). Prior to preparation of NSC-34 complete medium, L-Glutamine and Penicillin-Streptomycin solutions were aliquoted and stored at −20° C., and DMEM/High Glucose was stored at 4°. […] Prepared complete medium, DPBS, and Trypsin were always heated in a 37° C. water bath before use, and stored at 4° C. between uses. Cell counts for plating were performed using a Hausser Scientific cell counting chamber (Thermo-Fisher Scientific, Cambridge, MA, USA).
Proteins were reconstituted in sterile DMSO (Millipore-Sigma, Burlington, MA, USA) to stock concentrations of 10 mM, and stored at 4° C.
After reconstitution using the solvents specified in Table _, stocks were aliquoted to 15-20 μL and immediately stored at −20° C.
One row on the top and bottom of the plate, and two columns on either side of the plate, were left without cells and contained culture medium only to minimize experimental well volume evaporation. After plating, cells were incubated for 24 h at 37° C., 5% CO2 prior to DRP and/or PRMT inhibitor addition. At time of DRP/PRMT inhibitor addition, desired doses of DRP for challenge and inhibitor for treatment were achieved by diluting aliquots of each stock in warm culture medium. During experiments where both PRMT inhibitors and DRPs were used, PRMT inhibitors were always applied to wells first, and followed by DRP application. […] Inhibitor toxicity controls were included as wells treated with the desired doses of drug for the experiment, but no DRP. DRP toxicity controls were included as wells only treated with the doses of DRP used for challenge. […] Additional controls needed for each endpoint are specified in the “WST-1 Assay” and “LDH Assay” sections of these methods.
WST-1 Assay: Cells were plated and prepared using the steps described in the “Plating NSC-34 and Dosing with DRPs and PRMT Inhibitors” section of these methods. Other controls for this experiment included wells containing only cells in culture medium, and culture medium only. At time of testing, culture medium was removed from wells and replaced with a warmed, sterile-filtered solution consisting of DPBS with calcium and magnesium, and 4.5 g/L D-glucose (Millipore-Sigma, Burlington, MA, USA). To wells containing 200 μL DPBS-glucose solution, 20 μL/well WST-1 reagent (Millipore-Sigma, Burlington, MA) was applied and plates were then incubated at 37° C., 5% CO2 for 1 h before plates were read at 450 nm on a SpectraMax M3 Microplate Reader (Molecular Devices, San Jose, CA, USA). Experiments included three replicates per condition.

[2] = test system: NSC-34 cells; experiment: LDH assay (cytotoxicity) in NSC-34 cells; assay type: cell-based; settings: for dose dependence of abrogation of GR15-induced cytotoxicity / dose dependence of abrogation of PR15-induced cytotoxicity: dose range of the example
Description: LDH Assay: The LDH assay is a colorimetric assay that measures cell toxicity and death. […] When cells lose membrane integrity, an enzyme found in living cells called lactate dehydrogenase (LDH) is released into the solution surrounding the dying cell. A form of programmed cell death, apoptosis, as well as other forms of cell death also ultimately lead to a cell's membrane being destroyed, resulting in a large release of LDH into the extracellular space. Thus, LDH is an excellent marker not only for necrosis, but for all instances of cell death. In an LDH assay, a sample of the solution surrounding the cell is isolated, and transferred to a plate containing an LDH reaction mixture. This reaction mixture contains a tetrazolium salt intermediate and other reaction constituents that, when exposed to LDH, convert the tetrazolium salt into a colored Formazan product. This Formazan product can be quantified spectrophotometrically. Greater absorbance readings correspond to more cell death.
One row on the top and bottom of the plate, and two columns on either side of the plate, were left without cells and contained culture medium only to minimize experimental well volume evaporation. After plating, cells were incubated for 24 h at 37° C., 5% CO2 prior to DRP and/or PRMT inhibitor addition. At time of DRP/PRMT inhibitor addition, desired doses of DRP for challenge and inhibitor for treatment were achieved by diluting aliquots of each stock in warm culture medium. During experiments where both PRMT inhibitors and DRPs were used, PRMT inhibitors were always applied to wells first, and followed by DRP application. […] Inhibitor toxicity controls were included as wells treated with the desired doses of drug for the experiment, but no DRP. DRP toxicity controls were included as wells only treated with the doses of DRP used for challenge. Once dosed, plates were incubated for 24 h at 37° C., 5% CO2 prior to running the WST-1 or LDH assay endpoints. Additional controls needed for each endpoint are specified in the “WST-1 Assay” and “LDH Assay” sections of these methods.
LDH Assay: Cells were plated and prepared using the steps described in the “Plating NSC-34 and Dosing with DRPs and PRMT Inhibitors” section of these methods. Other controls for this experiment included several sets of wells with only cells in culture medium (one triplicate designated for “untreated,” one triplicate designated for “lysed” positive control), and wells with culture medium only. An additional control added only to the transfer plate at time of testing was 5 μL LDH only. Testing was performed using colorimetric LDH-Cytotoxicity Assay Kit II (Abcam, Cambridge, MA, USA) per manufacturer's instructions. Final read at 450 nm was performed on a SpectraMax M3 Microplate Reader (Molecular Devices, San Jose, CA, USA). Data analysis included calculation of % LDH release using the following equation: […]
Experiments included three replicates per condition. Each experiment was repeated twice (executed three times total).
(§1) The following conditions were plated in triplicate.
Plates were incubated for 24 h at 37° C., 5% CO2. Cells were tested and data were analyzed by LDH assay.
Cells were plated in culture medium in 2 96-well plates at a density of 3.7×10^4 cells per well, and incubated overnight at 37° C., 5% CO2.
as §1
Cells were plated in culture medium in 2 96-well plates at a density of 3.7×10^4 cells per well, and incubated overnight at 37° C., 5% CO2. […]
The following conditions were plated in triplicate. […]

[3] = 3 μM GR15, 24 h, doses 0.2-20 μM

Q: Which results are given for `CNCCN(C)Cc1c[nH]nc1-c1ccc(OC2CC(OCCC3CCOCC3)C2)cc1` (centres unmarked) [EPZ020411]?
A: dose with the greatest abrogation of GR15-induced dysmetabolism [1, 3]: 20 µM; abrogation of GR15-induced dysmetabolism ([1]; 3 μM GR15, 24 h, inhibitor doses 2, 10 and 20 μM): partially abrogated; dose dependence of abrogation of GR15-induced dysmetabolism ([1]; 3 μM GR15 challenge, 24 h): dose-dependently abrogated; abrogation of PR15-induced dysmetabolism ([1]; 3 μM PR15, 24 h, inhibitor doses 10 and 20 μM): completely abrogated; dose dependence of abrogation of PR15-induced dysmetabolism ([1]; 3 μM PR15 challenge, 24 h): dose-dependently abrogated; dysmetabolism independently of GR and PR challenge ([1]; no DRP, doses 10 and 20 μM, not attributable to DMSO): did cause significant dysmetabolism; dysmetabolism independently of GR and PR challenge ([1]; no DRP, other doses tested (0.2, 1, 2 μM)): not at other doses tested; abrogation of GR15-induced cytotoxicity ([2]; 3 μM GR15, 24 h, all doses but 0.2 μM (1, 2, 10, 20 μM)): partially abrogated; dose dependence of abrogation of GR15-induced cytotoxicity ([2]; 3 μM GR15, 24 h): dose-dependently abrogated; dose with the greatest effect on GR15-induced cytotoxicity [2, 3]: 20 µM; abrogation of PR15-induced cytotoxicity ([2]; 3 μM PR15, 24 h, all doses but 0.2 μM (1, 2, 10, 20 μM)): partially abrogated; dose dependence of abrogation of PR15-induced cytotoxicity ([2]; 3 μM PR15, 24 h): dose-dependently abrogated; dose with the greatest effect on PR15-induced cytotoxicity ([2]; 3 μM PR15, 24 h, doses 0.2-20 μM): 20 µM; cytotoxicity independently of GR and PR challenge ([2]; no DRP, doses 10 and 20 μM): did cause significant cytotoxicity

Q: Which “dysmetabolism independently of PR15 challenge vs untreated controls” value ([1]; no DRP, doses 33, 100 and 200 μM) does the source give for `O=C(NC[C@H](O)CN1CCc2ccccc2C1)c1ccnc(NC2CCC2)c1` [GSK591] here?
A: The value was “produced dysmetabolism”.

Q: What does the source list for `CCOCC1(COCC)CCC(c2n[nH]cc2CN(C)CCNC)CC1` [GSK3368715]?
A: dose dependence of abrogation of GR15-induced dysmetabolism ([1]; 3 μM GR15 challenge, 24 h): dose-dependently abrogated; abrogation of GR15-induced dysmetabolism ([1]; 3 μM GR15 challenge, 24 h, inhibitor doses 1 and 3 μM): completely abrogated; dose dependence of abrogation of PR15-induced dysmetabolism ([1]; 3 μM PR15 challenge, 24 h): dose-dependently abrogated; abrogation of PR15-induced dysmetabolism ([1]; 3 μM PR15 challenge, 24 h, inhibitor doses 1 and 3 μM): completely abrogated; abrogation of GR15-induced cytotoxicity ([2]; 3 μM GR15, 24 h, dose 1 μM): completely abrogated; dose dependence of abrogation of GR15-induced cytotoxicity ([2]; 3 μM GR15, 24 h): dose-dependently abrogated; abrogation of PR15-induced cytotoxicity ([2]; 3 μM PR15, 24 h, dose 1 μM): completely abrogated; abrogation of PR15-induced cytotoxicity ([2]; 3 μM PR15, 24 h, dose 3 μM): nearly completely abrogated; dose dependence of abrogation of PR15-induced cytotoxicity ([2]; 3 μM PR15, 24 h): dose-dependently abrogated; cytotoxicity independently of GR15 and PR15 challenge ([2]; no DRP, all doses (0.1-10 μM), likely solvent effects): induced low levels of cytotoxicity

Q: What does the source list for `CC(C)Oc1ccc(-c2c[nH]cc2CN(C)CCO)cc1` [MS094]?
A: abrogation of GR15-induced dysmetabolism ([1]; 3 μM GR15 challenge, 24 h, over all tested doses of the inhibitor): No doses of negative control MS094 abrogated dysmetabolism; abrogation of PR15-induced dysmetabolism ([1]; 3 μM PR15 challenge, 24 h, over all tested doses of the inhibitor): No doses of negative control MS094 abrogated dysmetabolism; abrogation of GR15-induced cytotoxicity ([2]; 3 μM GR15, 24 h, over all tested doses (0.2-60 μM)): No doses of negative control MS094 abrogated cytotoxicity; abrogation of PR15-induced cytotoxicity ([2]; 3 μM PR15, 24 h, over all tested doses (0.2-60 μM)): No doses of negative control MS094 abrogated cytotoxicity; cytotoxicity of inhibitor alone vs untreated controls ([2]; no DRP, doses 10, 30 and 60 μM, at highest 2 doses likely DMSO-related): produced cytotoxicity

Q: “ADMe-GR15: asymmetrically dimethylated GR15, synthesized protein (Eurogentec) (GRGRGRGRGRGRGRGRGRGRGRGRGRGRGR; also: asymmetric arginine dimethylation, extent/places not given here)” was tested. Which “dysmetabolism compared with non-methylated GR15” value [1] did it give?
A: Its value is “consistently producing more dysmetabolism than non-methylated GR15”.

Q: What about the “cytotoxicity compared with non-methylated GR15” value [2] of the same compound?
A: The value was “consistently producing more cytotoxicity than non-methylated GR15”.
